Experiments:
Assay type in all cases: functional
IGROV-1 [1] = experiment: Cytotoxicity against human IGROV1 cells assessed as cellular growth at 0.01 uM after 48 hrs by SRB assay relative to control
SK-MEL-28 [2] = experiment: Cytotoxicity against human SK-MEL-28 cells assessed as cellular growth at 0.01 uM after 48 hrs by SRB assay relative to control
MDA-MB-435 [3] = experiment: Cytotoxicity against human MDA-MB-435 cells assessed as cellular growth at 0.01 uM after 48 hrs by SRB assay relative to control
NCI-H226 = experiment: Cytotoxicity against human NCI-H226 cells assessed as cellular growth at 0.01 uM after 48 hrs by SRB assay relative to control
HOP-62 = experiment: Cytotoxicity against human HOP62 cells assessed as cellular growth at 0.01 uM after 48 hrs by SRB assay relative to control
MDA-MB-231 [4] = experiment: Cytotoxicity against human MDA-MB-231 cells assessed as cellular growth at 100 uM after 48 hrs by SRB assay relative to control
MCF7 = experiment: Cytotoxicity against human MCF7 cells assessed as cellular growth at 100 uM after 48 hrs by SRB assay relative to control
DU-145 = experiment: Cytotoxicity against human DU145 cells assessed as cellular growth at 100 uM after 48 hrs by SRB assay relative to control
SR = experiment: Cytotoxicity against human SR cells assessed as cellular growth at 0.01 uM after 48 hrs by SRB assay relative to control
OVCAR-3 = experiment: Cytotoxicity against human OVCAR3 cells assessed as cellular growth at 100 uM after 48 hrs by SRB assay relative to control
Malme-3M = experiment: Cytotoxicity against human MALME-3M cells assessed as cellular growth at 100 uM after 48 hrs by SRB assay relative to control
SW-620 [5] = experiment: Cytotoxicity against human SW620 cells assessed as cellular growth at 100 uM after 48 hrs by SRB assay relative to control
HCT-116 = experiment: Cytotoxicity against human HCT116 cells assessed as cellular growth at 100 uM after 48 hrs by SRB assay relative to control
T47D [6] = experiment: Cytotoxicity against human T47D cells assessed as cellular growth at 1 uM after 48 hrs by SRB assay relative to control
[7] = Cytotoxicity against human EKVX cells assessed as cellular growth at 10 uM after 48 hrs by SRB assay relative to control
BT-549 = experiment: Cytotoxicity against human BT549 cells assessed as cellular growth at 1 uM after 48 hrs by SRB assay relative to control
MDA-MB-231 [8] = experiment: Cytotoxicity against human MDA-MB-231 cells assessed as cellular growth at 1 uM after 48 hrs by SRB assay relative to control
RXF 393 [9] = experiment: Cytotoxicity against human RXF393 cells assessed as cellular growth at 1 uM after 48 hrs by SRB assay relative to control
IGROV-1 [10] = experiment: Cytotoxicity against human IGROV1 cells assessed as cellular growth at 1 uM after 48 hrs by SRB assay relative to control
UACC-62 [11] = experiment: Cytotoxicity against human UACC62 cells assessed as cellular growth at 1 uM after 48 hrs by SRB assay relative to control
UACC-257 = experiment: Cytotoxicity against human UACC257 cells assessed as cellular growth at 1 uM after 48 hrs by SRB assay relative to control
MDA-MB-435 [12] = experiment: Cytotoxicity against human MDA-MB-435 cells assessed as cellular growth at 1 uM after 48 hrs by SRB assay relative to control
SNB-75 = experiment: Cytotoxicity against human SNB75 cells assessed as cellular growth at 1 uM after 48 hrs by SRB assay relative to control
CCRF-CEM = experiment: Cytotoxicity against human CCRF-CEM cells assessed as cellular growth at 1 uM after 48 hrs by SRB assay relative to control
T47D [13] = experiment: Cytotoxicity against human T47D cells assessed as cellular growth at 0.1 uM after 48 hrs by SRB assay relative to control
Hs-578T = experiment: Cytotoxicity against human Hs578T cells after 48 hrs by SRB assay
786-0 = experiment: Cytotoxicity against human 786-0 cells after 48 hrs by SRB assay; conditions: 786-0, 48 h
UACC-62 [14] = experiment: Cytotoxicity against human UACC62 cells after 48 hrs by SRB assay; conditions: UACC-62, 48 h
LOX IMVI = experiment: Cytotoxicity against human LOXIMVI cells after 48 hrs by SRB assay
A498 = experiment: Cytotoxicity against human A498 cells assessed as cellular growth at 0.1 uM after 48 hrs by SRB assay relative to control
IGROV-1 [15] = experiment: Cytotoxicity against human IGROV1 cells assessed as cellular growth at 0.1 uM after 48 hrs by SRB assay relative to control
SK-MEL-28 [16] = experiment: Cytotoxicity against human SK-MEL-28 cells assessed as cellular growth at 0.1 uM after 48 hrs by SRB assay relative to control
M14 = experiment: Cytotoxicity against human M14 cells assessed as cellular growth at 0.1 uM after 48 hrs by SRB assay relative to control
SF-539 = experiment: Cytotoxicity against human SF539 cells assessed as cellular growth at 0.1 uM after 48 hrs by SRB assay relative to control
SW-620 [17] = experiment: Cytotoxicity against human SW620 cells assessed as cellular growth at 0.1 uM after 48 hrs by SRB assay relative to control
NCI-H23 = experiment: Cytotoxicity against human NCI-H23 cells assessed as cellular growth at 0.1 uM after 48 hrs by SRB assay relative to control
MDA-MB-231 [18] = experiment: Cytotoxicity against human MDA-MB-231 cells assessed as cellular growth at 0.01 uM after 48 hrs by SRB assay relative to control
TK-10 = experiment: Cytotoxicity against human TK10 cells assessed as cellular growth at 0.01 uM after 48 hrs by SRB assay relative to control
SN12C = experiment: Cytotoxicity against human SN12C cells assessed as cellular growth at 0.01 uM after 48 hrs by SRB assay relative to control
RXF 393 [19] = experiment: Cytotoxicity against human RXF393 cells assessed as cellular growth at 0.01 uM after 48 hrs by SRB assay relative to control
[20] = read-out: LC50 (the source's name)
[21] = read-out: pLC50 (the source's name) (converted)

Structure (SMILES): CN1CCN(CCCn2c3c(sc4ncccc43)c(=O)n3nnc(-c4ccccc4)c23)CC1
- Activity (IGROV-1 [1]): 102%
- Activity (SK-MEL-28 [2]): 100%
- Activity (MDA-MB-435 [3]): 101%
- Activity (NCI-H226): 95%
- Activity (HOP-62): 97%
- Activity (MDA-MB-231 [4]): -42%
- Activity (MCF7): -79%
- Activity (DU-145): -88%
- Activity (SR): 100%
- Activity (OVCAR-3): -84%
- Activity (Malme-3M): -82%
- Activity (SW-620 [5]): -75%
- Activity (HCT-116): -64%
- Activity (T47D [6]): 103%
- Activity [7]: -43%
- Activity (BT-549): 97%
- Activity (MDA-MB-231 [8]): 87%
- Activity (RXF 393 [9]): 93%
- Activity (IGROV-1 [10]): 94%
- Activity (UACC-62 [11]): 84%
- Activity (UACC-257): 97%
- Activity (MDA-MB-435 [12]): 99%
- Activity (SNB-75): 66%
- Activity (CCRF-CEM): 77%
- Activity (T47D [13]): 100%
- GI50 (Hs-578T; read-out: GI50): 14.9 µM
- CC50 (Hs-578T; [20]): > 100 µM
- TGI (Hs-578T; read-out: TGI): 41.7 µM
- GI50 (Hs-578T; read-out: pGI50 (converted)): 14.8 µM
- CC50 (Hs-578T; read-out: pLC50 (converted)): > 100 µM
- TGI (Hs-578T; read-out: pTGI (converted)): 41.7 µM
- GI50 (786-0; read-out: GI50): 1.87 µM
- CC50 (786-0; [20]): 6.56 µM
- TGI (786-0; read-out: TGI): 3.5 µM
- GI50 (786-0; read-out: pGI50 (converted)): 1.86 µM
- CC50 (786-0; [21]): 6.61 µM
- TGI (786-0; read-out: pTGI (converted)): 3.47 µM
- GI50 (UACC-62 [14]; read-out: GI50): 16.6 µM
- CC50 (UACC-62 [14]; [20]): 71 µM
- TGI (UACC-62 [14]; read-out: TGI): 34.3 µM
- GI50 (UACC-62 [14]; read-out: pGI50 (converted)): 16.6 µM
- CC50 (UACC-62 [14]; [21]): 70.8 µM
- TGI (UACC-62 [14]; read-out: pTGI (converted)): 34.7 µM
- GI50 (LOX IMVI; read-out: GI50): 1.66 µM
- TGI (LOX IMVI; read-out: TGI): 3.36 µM
- GI50 (LOX IMVI; read-out: pGI50 (converted)): 1.66 µM
- TGI (LOX IMVI; read-out: pTGI (converted)): 3.39 µM
- Activity (A498): 81%
- Activity (IGROV-1 [15]): 96%
- Activity (SK-MEL-28 [16]): 95%
- Activity (M14): 94%
- Activity (SF-539): 89%
- Activity (SW-620 [17]): 89%
- Activity (NCI-H23): 93%
- Activity (MDA-MB-231 [18]): 100%
- Activity (TK-10): 105%
- Activity (SN12C): 97%
- Activity (RXF 393 [19]): 100%

Structure (SMILES): O=C(CCCn1c2c(sc3ccccc32)c(=O)n2nnc(-c3ccccc3)c12)NCCc1c[nH]cn1
- Activity (IGROV-1 [1]): 101%
- Activity (SK-MEL-28 [2]): 117%
- Activity (MDA-MB-435 [3]): 117%
- Activity (NCI-H226): 97%
- Activity (HOP-62): 112%
- Activity (MDA-MB-231 [4]): -100%
- Activity (MCF7): -73%
- Activity (DU-145): -100%
- Activity (SR): 108%
- Activity (OVCAR-3): -100%
- Activity (Malme-3M): -72%
- Activity (SW-620 [5]): -100%
- Activity (HCT-116): 3%
- Activity (T47D [6]): 57%
- Activity [7]: 6%
- Activity (BT-549): 100%
- Activity (MDA-MB-231 [8]): 101%
- Activity (RXF 393 [9]): 113%
- Activity (IGROV-1 [10]): 41%
- Activity (UACC-62 [11]): 94%
- Activity (UACC-257): 109%
- Activity (MDA-MB-435 [12]): 34%
- Activity (SNB-75): 107%
- Activity (CCRF-CEM): -28%
- Activity (T47D [13]): 55%
- GI50 (Hs-578T; read-out: GI50): 1.47 µM
- TGI (Hs-578T; read-out: TGI): 3.82 µM
- GI50 (Hs-578T; read-out: pGI50 (converted)): 1.48 µM
- TGI (Hs-578T; read-out: pTGI (converted)): 3.8 µM
- GI50 (786-0; read-out: GI50): 1.05 µM
- CC50 (786-0; [20]): 5.34 µM
- TGI (786-0; read-out: TGI): 2.37 µM
- GI50 (786-0; read-out: pGI50 (converted)): 1.05 µM
- CC50 (786-0; [21]): 5.37 µM
- TGI (786-0; read-out: pTGI (converted)): 2.34 µM
- GI50 (UACC-62 [14]; read-out: GI50): 1.81 µM
- CC50 (UACC-62 [14]; [20]): 7.01 µM
- TGI (UACC-62 [14]; read-out: TGI): 3.56 µM
- GI50 (UACC-62 [14]; read-out: pGI50 (converted)): 1.82 µM
- CC50 (UACC-62 [14]; [21]): 7.08 µM
- TGI (UACC-62 [14]; read-out: pTGI (converted)): 3.55 µM
- GI50 (LOX IMVI; read-out: GI50): 1.51 µM
- CC50 (LOX IMVI; [20]): 5.49 µM
- TGI (LOX IMVI; read-out: TGI): 2.88 µM
- GI50 (LOX IMVI; read-out: pGI50 (converted)): 1.51 µM
- CC50 (LOX IMVI; [21]): 5.5 µM
- TGI (LOX IMVI; read-out: pTGI (converted)): 2.88 µM
- Activity (A498): 72%
- Activity (IGROV-1 [15]): 50%
- Activity (SK-MEL-28 [16]): 121%
- Activity (M14): 68%
- Activity (SF-539): 1%
- Activity (SW-620 [17]): 29%
- Activity (NCI-H23): 75%
- Activity (MDA-MB-231 [18]): 115%
- Activity (TK-10): 96%
- Activity (SN12C): 50%
- Activity (RXF 393 [19]): 118%
